Values joined by “and” are separate entries in the source; they are usually repeats but may differ in a detail not shown here. Equal entries are not always repeated. “Also recorded” adds a separate entry of the source. Non-standard residues stand in square brackets, D forms with d. Residues, ends and D or L forms follow the SMILES beside them. d1Nal = N[C@H](Cc1cccc2ccccc12)C(=O)O; NMeF = CN[C@@H](Cc1ccccc1)C(=O)O; dCha = N[C@H](CC1CCCCC1)C(=O)O

The target in assay [1] is T1, human C5aR (Homo sapiens, UniProt P21730).
T1 construct: host or cells: CHO cells, stably transfected (G418 selection)
T1 sequence (P21730 1-350): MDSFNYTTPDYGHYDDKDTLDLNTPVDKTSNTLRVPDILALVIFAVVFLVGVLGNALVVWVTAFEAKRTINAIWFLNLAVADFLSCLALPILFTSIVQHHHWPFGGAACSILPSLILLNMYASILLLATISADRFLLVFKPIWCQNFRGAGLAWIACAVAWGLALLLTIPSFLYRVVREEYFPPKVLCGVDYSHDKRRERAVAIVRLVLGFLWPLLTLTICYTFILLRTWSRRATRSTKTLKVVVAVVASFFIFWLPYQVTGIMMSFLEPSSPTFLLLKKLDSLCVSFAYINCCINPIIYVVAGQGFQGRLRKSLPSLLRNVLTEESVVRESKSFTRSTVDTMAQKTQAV
Put plainly: 125I-C5a competitive receptor binding (SPA) on HMDM. The following applies: for IC50: 25 pM 125I-C5a, 95% confidence intervals in brackets. The source says: (§1) The scintillation proximity assay (SPA) was used to study ligand binding interactions with the receptor. The basic principle of the assay involved coupling receptor membrane preparations to coated SPA beads. When a radiolabelled ligand, which is able to bind to the receptor coupled onto the SPA bead, interacts with the receptor it will be close enough in proximity to activate the SPA bead. The radiolabel emits radiation that leads to the production of a light signal by activation of the scintillant in the bead. More specifically for our studies, receptor binding studies were performed using Polyvinyltoluene (PVT) scintillation beads, which have wheat germ agglutinin (WGA) covalently attached on the surface (Perkin Elmer). These beads allow for the development of a homogeneous GPCR radioligand binding assay using cellular membranes or whole cells. Briefly, receptor SPA studies were performed in 96-well white isoplates with clear flat bottoms (Perkin Elmer). ^125I-C5a (~25 pM) (specific activity, 2,200 Ci/mmol) (Perkin Elmer) was added to either CHO-C5aR membrane preparations (~2 µg/well) or HMDM (25,000 cells/well). SPA beads (200 µg/well) were then added, followed by the addition of various concentrations of competing ligands (6 pM to 100 µM) in a total volume of 80 µL of buffer A (CHO-C5aR) or B (HMDM) (50 mM Tris-HCl, pH 7.4, 0.5% BSA, and either 5 mM MgCl2, 1 mM CaCl2 (A) or 3 mM MgCl2, 0.1 mM CaCl2 (B)). The final reaction volume per well comprised 20 µL of ligand/buffer, 20 µL of PVT WGA SPA beads, 20 µL of membrane/cells and the assay was initiated by the addition of 20 µL of ^125I-C5a. The plate was then sealed using TopSeal-A (Perkin Elmer) sealing film and incubated with shaking for 1 h at room temperature. Radioligand binding was then assessed for 30 s/well using a 1450 Microbeta scintillation counter (Perkin Elmer). All binding and subsequent assay data, unless stated otherwise, was analysed using GraphPad Prism 5.0c (GraphPAD Software Inc., San Diego, CA, USA).

For assay [2], the target named is T1, human C5aR. As to the kind of experiment: 125I-C5a competitive receptor binding (SPA) on CHO-C5aR membranes. Conditions: for IC50: CHO-C5aR membranes, 25 pM 125I-C5a, 95% confidence intervals in brackets. The procedure:
Membranes were prepared from CHO-C5aR cells by modification of a previously described method. Briefly, cells were washed with PBS, pH 7.4, and harvested into buffer (50 mM Tris-HCl, pH 7.4, 5 mM MgCl2, 1 mM CaCl2) before homogenising with a Polytron homogeniser for 3 min on setting 22. Cells were centrifuged at 150× g for 5 min at 4 °C. The supernatant was recovered and centrifuged at 22,000× g for 1 h at 4 °C. Membrane pellets were then resuspended in 0.4 mL of ice-cold assay buffer A (50 mM Tris-HCl, pH 7.4, 5 mM MgCl2, 1 mM CaCl2, 0.5% bovine serum albumin (BSA) (Sigma Aldrich) containing 10% glycerol) with aliquots stored at −80 °C. The protein concentration of the membrane preparations was determined by the Bradford method.
as §1

Assay [3] deals with T1, human C5aR. As to the kind of experiment: Alphascreen SureFire phospho-ERK1/2 assay in HMDM. Conditions: for EC50: 95% confidence intervals in brackets, read-out: ERK (EC50). Type of assay: cell-based. The method, then: (§2) Alphascreen (Amplified Luminescent Proximity Homogeneous Assay Screen) SureFire phospho-ERK1/2 assay was performed according to manufacturers’ instructions (Perkin Elmer). AlphaScreen involves the use of two beads, denoted the donor and acceptor beads. When both beads are bound as a pair to an analyte and the donor bead is excited, a singlet oxygen is released which activates the acceptor bead. As there is a distance constraint here, only beads in close proximity can lead to further reactions that produce the detectable chemiluminescent signal. Briefly, HMDM and CHO-C5aR cells were serum starved and incubated in 96-well tissue culture plates (Nunc) overnight at 60,000 and 50,000 cells/well, respectively. Ligands were prepared in serum-free media at a final DMSO concentration of 1%. Ligands were incubated at room temperature for 10 and 15 min with HMDM and CHO-C5aR, respectively. Media was removed and cells were lysed with lysis buffer for 10 min on a shaker, 4 μL of lysate was transferred to a white 96-well half area plate (Perkin Elmer) and incubated in the presence of 7 μL of reaction mix. The plate was sealed with TopSeal-A, incubated for 2 h at 37 °C and measured on an Envision plate reader (Perkin Elmer). Each data point was performed in triplicate and repeated in at least three separate experiments.
Background: Bead proximity is the source of the signal in Alpha formats.

In assay [4] the target is T1, human C5aR. As to the kind of experiment: Alphascreen SureFire phospho-ERK1/2 assay in CHO-C5aR cells. Type of assay: cell-based. Conditions: for EC50: 95% confidence intervals in brackets, read-out: ERK (EC50). The procedure: as §2
Assay [5] concerns the target T1, human C5aR. Put plainly: EPIC label-free optical system on HMDM. Type of assay: cell-based. Conditions: peak response ~5 min, 95% confidence intervals in brackets. The procedure: (§3) HMDM were seeded, at 50,000 cells/well and CHO-C5aR and CHO-K1 at 7,500 cells/well, into fibronectin-coated cell-based EPIC® plates (Corning) and incubated overnight. Prior to ligand addition, media was exchanged for HBSS (Invitrogen Life Technologies): 20 mM HEPES (Sigma Aldrich) buffer, supplemented with 0.5% DMSO, and allowed to equilibrate at 26 °C for 1 h (HMDM) or 2 h (CHO-C5aR and CHO-K1) within the instrument. Agonists were prepared at a final DMSO concentration of 0.5% in HBSS:HEPES buffer. After ligand addition, measurements were taken continuously for 1–2 h at 26 °C. Peak amplitude response (Figure 2) was measured for data analysis using Corning EPIC® software.

Assay [6] concerns the target T1, human C5aR. Put plainly: EPIC label-free optical system on CHO-C5aR cells. The following applies: peak response ~5 min, 95% confidence intervals in brackets. It counts as cell-based. The procedure: as §3
Assay [7] has as its target T1, human C5aR. As to the kind of experiment: xCELLigence label-free impedance system on HMDM. It counts as cell-based. Conditions: predominant peak ~3.5 min, 95% confidence intervals in brackets. The method, then:
(§4) HMDM were seeded at 30,000 cells/well, CHO-C5aR at 5,000 cells/well and CHO-K1 at 7,500 cells/well and incubated overnight in 384-well E-Plates (Roche). Ligand preparation and cell treatment was as described for the EPIC® protocol above. However, during the buffer exchange equilibration steps, cells were kept in the incubator at 37 °C with 5% CO2. HMDM were media exchanged with serum-free IMDM and incubated for 2 h prior to ligand addition with recordings at 37 °C. Ligands for the HMDM experiments were prepared in serum-free media. To ensure consistency with the EPIC® data, time point for data analysis was determined by a number of different factors, mainly maximum response of predominant peak (Figure 2), but point at which the EC50 was stable over this time according to the RTCA software was also used to confirm the time point

The target of assay [8] is T1, human C5aR. As to the kind of experiment: xCELLigence label-free impedance system on CHO-C5aR cells. It counts as cell-based. The following applies: predominant peak ~3.5 min, 95% confidence intervals in brackets. The procedure: as §4
The subject of assay [9] is C5aR. The arrangement: method as in PMID 7930622. Conditions: neutrophils; cited from earlier work.
The test system of assay [10] is C5aR. The following applies: different cell types and assay platforms; cited from earlier work.

Turning to `CN[C@@H](Cc1ccccc1)C(=O)N[C@@H](CCCCN)C(=O)N1CCC[C@H]1C(=O)N[C@H](CC1CCCCC1)C(=O)N[C@H](CC1CCCCC1)C(=O)N[C@H](CCCNC(=N)N)C(=O)O` [Peptide agonist, NMePhe-Lys-Pro-dCha-dCha-dArg-COOH] (H-[NMeF]KP[dCha][dCha][dR]-OH), the IC50 at human C5aR [1] stood at 132 nM; on human C5aR [2], 47 nM. Besides, the results for the “ERK response relative to the native ligand C5a (efficacy)” value at human C5aR [3] and on human C5aR [4] were “characteristics of a partial agonist; also recorded: partial agonist activity” and “potentiation of the response relative to the native ligand”, respectively. Besides, the concentration giving a half-maximal response (EC50) on human C5aR [3] was determined as 120 nM; on human C5aR [4], 5 nM; on human C5aR [5], 563 nM; at human C5aR [6], 347 nM; at human C5aR [7], 546 nM; on human C5aR [8], 351 nM. Moreover, the “ERK EC50 relative to that of C5a” value at human C5aR [4] is recorded as ~ 30 fold. In addition, the “Functional character in myeloperoxidase release” value with C5aR [9] is “full agonist”.
In the case of `CN[C@@H](Cc1ccccc1)C(=O)N[C@@H](CCCCN)C(=O)N1CCC[C@H]1C(=O)N[C@H](CC1CCCCC1)C(=O)N[C@H](Cc1cccc2ccccc12)C(=O)N[C@H](CCCNC(=N)N)C(=O)O` [Peptide partial agonist, NMePhe-Lys-Pro-dCha-dNal-dArg-COOH] (H-[NMeF]KP[dCha][d1Nal][dR]-OH), the “ERK response relative to the native ligand C5a (efficacy)” value at human C5aR [3] and on human C5aR [4] was “approximately half of the response relative to C5a” throughout.
Regarding C5a des-Arg, the results for the “Difference in binding IC50 relative to C5a” value at human C5aR [1] and on human C5aR [2] (CHO-C5aR) were ~ 2 fold and ~ 6 fold, respectively. In addition, the “Reduction in potency compared to C5a” value in the assay with C5aR [10] is recorded as 10–1,000 fold.

B1: C5a des-Arg (protein)
chain: TLQKKIEEIAAKYKHSVVKKCCYDGACVNNDETCEQRAARISLGPRCIKAFTECCVVASQLRANISHKDMQLG
modifications: glycosylated (N-glycan at Asn64 of C5a, Asn741 of precursor, by convention); three intrachain disulfides
notes: C5a minus its C-terminal arginine, purchased from Merck
Regarding B1, the IC50 with human C5aR [1] was 2.5 nM; in the assay with human C5aR [2], 1.2 nM and 1.23 nM. For the same molecule, the EC50 with human C5aR [3] is 0.55 nM; with human C5aR [4] it was 2 nM; in the assay with human C5aR [5] it was 47 nM; in the assay with human C5aR [6], 11 nM; with human C5aR [7] it was 20 nM; in the assay with human C5aR [8], 44 nM.

B2: C5a: endogenous 74 residue protein ligand of human C5aR, purchased from Sigma Aldrich and Sino Biological Inc (protein, UniProt P01031 678-751, looked up)
C5a anaphylatoxin: TLQKKIEEIAAKYKHSVVKKCCYDGACVNNDETCEQRAARISLGPRCIKAFTECCVVASQLRANISHKDMQLGR
modifications: C5a anaphylatoxin
notes: endogenous 74 residue protein ligand of human C5aR, purchased from Sigma Aldrich and Sino Biological Inc
For the molecule B2, the IC50 stood at 1.2 nM with human C5aR [1] and 0.2 nM with human C5aR [2]. Also, the EC50 with human C5aR [3] is 0.47 nM; in the assay with human C5aR [4] it was 0.15 nM; with human C5aR [5], 107 nM; with human C5aR [6], 24 nM; with human C5aR [7], 89 nM; in the assay with human C5aR [8], 16 nM.

As usually defined, the IC50 is the midpoint of a concentration-inhibition curve. The low end stands for higher potency, the high end for lower potency. One may read the EC50 as the concentration giving half of the maximal effect.

These data come from article PMC4263554, “A Comparative Study of Impedance versus Optical Label-Free Systems Relative to Labelled Assays in a Predominantly Gi Coupled GPCR (C5aR) Signalling” (Biosensors, 2012).
